In patent US6297268A, “Imidazoles as cholesterol lowering agents” (Schering Corporation, priority 1999, dated 2001):

What was measured:
serum cholesterol [1] = experiment: Cholesterol lowering properties of the compound of Formula II in monkeys: serum cholesterol; type: in vivo, cynomolgus monkey (Macaca fascicularis); conditions: for % change in group mean serum cholesterol from last pretest to after 14 doses: daily oral (gavage), 22 hours after 14th dose
Experimental: Similar to Example 2, a homogeneous suspension of the compound of Formula II in aqueous methyl cellulose (0.4 percent weight/volume) was prepared for these studies and stored at ambient temperature conditions. The amount of the suspension fed to each monkey was calculated to provide the desired dosage of the compound of Formula II (given below) for that monkey.
(§1) Adult cynomolgus monkeys (four per sex per group, Macaca fascicularis monkey, supplied by Charles River BRF Incorporated, Houston, Tex.) were given single daily oral doses (gavage) of the compound of Formula II (30, 100 or 300 mg/kg of body weight) in the form of the above-stated suspension for 16 to 18 days. […] The monkeys were fed with nutritionally adequate amounts of PMI Inc. Certified Primate Diet® #46 (available from PMI Feeds, Incorporated) daily, at least one hour after dosing was completed. Certified monkey treats were offered daily. Tap water was provided ad libitum. Blood was collected and serum chemistry parameters were measured twice pretest and after 14 daily doses (22 hours after the 14th dose).
Mild to moderate decreases in serum cholesterol, compared with pretest and concurrent and/or historical control data, occurred in all dosed monkeys. The decreases were generally dose-dependent, except that there was no real difference between mid- and high-dose females.

serum cholesterol [2] = experiment: Cholesterol lowering properties of the compound of Formula II in rats: serum cholesterol; type: in vivo, rat (Crl:CD(SD)BR VAF/Plus); conditions: for Group Mean Serum Cholesterol: single daily oral doses (gavage), at necropsy after 15-16 doses; for serum cholesterol (result in words): oral
Experimental: (§2) A homogeneous suspension of the compound of Formula II in aqueous methyl cellulose (aqueous methyl cellulose concentration: 0.4 percent weight/volume) was prepared for these studies and stored at ambient temperature conditions. The amount of the suspension fed to each rat was calculated to provide the desired dosage of the compound of Formula II (see below) for that rat.
(§3) Six-week-old rats (Rat/Crl:CD®(SD)BR VAF/Plus®, supplied by Charles River Laboratories, Kingston, N.Y.; ten rats per sex per group) were given single daily oral doses (via gavage tube) of the compound of Formula II (30, 100 or 300 mg/kg of body weight of the rat) as the above-stated suspension for 15 to 16 days. […] The rats were housed individually in suspended stainless steel wire mesh cages and were fed with a meal of Certified Rodent Diet® 5002 available from PMI® Feeds, Incorporated, St. Louis, Mo. Tap water was provided ad libitum during the study period. Blood was collected at necropsy over two days (after 15-16 doses), and serum chemistry parameters were measured.
(§4) The results obtained at necropsy (after 15-16 doses) are given in Table 1 for both the male and female rats: […]

[3] = Plasma analysis to confirm absorption in rats; type: in vivo, rat (Crl:CD(SD)BR VAF/Plus); conditions: oral, plasma analysis after one and 14 doses
Experimental: Six-week-old rats (Rat/Crl:CD®(SD)BR VAF/Plus®, supplied by Charles River Laboratories, Kingston, N.Y.; ten rats per sex per group) were given single daily oral doses (via gavage tube) of the compound of Formula II (30, 100 or 300 mg/kg of body weight of the rat) as the above-stated suspension for 15 to 16 days. […] The rats were housed individually in suspended stainless steel wire mesh cages and were fed with a meal of Certified Rodent Diet® 5002 available from PMI® Feeds, Incorporated, St. Louis, Mo. Tap water was provided ad libitum during the study period. […]

serum triglyceride = experiment: Cholesterol lowering properties of the compound of Formula II in rats: serum triglycerides; type: in vivo, rat (Crl:CD(SD)BR VAF/Plus); conditions: for Group Mean Serum Triglyceride Concentrations: single daily oral doses (gavage)
Experimental: as §2, §3, §4

[4] = Plasma levels and pharmacokinetics in monkeys; type: in vivo, cynomolgus monkey (Macaca fascicularis); conditions: oral, plasma levels after one and 16 doses
Experimental: as §1

O=C(NCc1ccc(Cc2c[nH]cn2)cc1)Nc1cc(Cl)cc(Cl)c1 [compound of Formula II]
cholesterol (result in words) (serum cholesterol [1]; all monkeys dosed with 30, 100 or 300 mg/kg, oral): mildly to moderately decreased cholesterol
% change in group mean serum cholesterol from last pretest to after 14 doses (serum cholesterol [1]; female monkeys, 30 mg/kg, control -03): -24%
% change in group mean serum cholesterol from last pretest to after 14 doses (serum cholesterol [1]; female monkeys, 100 mg/kg, control -03, *n=3, excludes No. 22F, sacrificed on Day 9): -63%
% change in group mean serum cholesterol from last pretest to after 14 doses (serum cholesterol [1]; female monkeys, 300 mg/kg, control -03): -59%
% change in group mean serum cholesterol from last pretest to after 14 doses (serum cholesterol [1]; male monkeys, 30 mg/kg, control +02): -25%
% change in group mean serum cholesterol from last pretest to after 14 doses (serum cholesterol [1]; male monkeys, 100 mg/kg, control +02): -46%
% change in group mean serum cholesterol from last pretest to after 14 doses (serum cholesterol [1]; male monkeys, 300 mg/kg, control +02): -61%
Group Mean Serum Cholesterol (serum cholesterol [2]; female rats, 30 mg/kg, control 29.7): 26.5 mg/dL
Group Mean Serum Cholesterol (serum cholesterol [2]; female rats, 100 mg/kg, control 29.7): 19.4 mg/dL
Group Mean Serum Cholesterol (serum cholesterol [2]; female rats, 300 mg/kg, control 29.7): 16.0 mg/dL
serum cholesterol (result in words) (serum cholesterol [2]; female rats, 100 or 300 mg/kg, compared with concurrent control): Lower serum cholesterol concentrations
Group Mean Serum Cholesterol (serum cholesterol [2]; male rats, 30 mg/kg, control 34.7): 20.9 mg/dL
Group Mean Serum Cholesterol (serum cholesterol [2]; male rats, 100 mg/kg, control 34.7): 16.9 mg/dL
Group Mean Serum Cholesterol (serum cholesterol [2]; male rats, 300 mg/kg, control 34.7): 12.3 mg/dL
serum cholesterol (result in words) (serum cholesterol [2]; male rats, 30, 100 or 300 mg/kg): dose-dependent lower serum cholesterol
absorption (result in words) [3]: confirm absorption
Group Mean Serum Triglyceride Concentrations (serum triglyceride; female rats, 30 mg/kg, at necropsy after 15-16 doses, control 22.4): 20.5 mg/dL
Group Mean Serum Triglyceride Concentrations (serum triglyceride; female rats, 100 mg/kg, after 15-16 doses, control 22.4, *group mean excludes individuals with values <10, actual mean would be lower): 13.6 mg/dL
Group Mean Serum Triglyceride Concentrations (serum triglyceride; female rats, 300 mg/kg, after 15-16 doses, control 22.4, *group mean excludes individuals with values <10, actual mean would be lower): 16.3 mg/dL
serum triglyceride (result in words) (serum triglyceride; male and female rats, 100 or 300 mg/kg, oral): Lower serum triglyceride concentrations
Group Mean Serum Triglyceride Concentrations (serum triglyceride; male rats, 30 mg/kg, at necropsy after 15-16 doses, control 40.7): 37.2 mg/dL
Group Mean Serum Triglyceride Concentrations (serum triglyceride; male rats, 100 mg/kg, at necropsy after 15-16 doses, control 40.7): 27.8 mg/dL
Group Mean Serum Triglyceride Concentrations (serum triglyceride; male rats, 300 mg/kg, at necropsy after 15-16 doses, control 40.7): 21.2 mg/dL
absorption (result in words) [4]: confirm absorption
